Laboratory results published in US20190016689A1, “NOVEL FLUORINATED QUINAZOLINE DERIVATIVES AS EGFR INHIBITORS” (TRILLIUM THERAPEUTICS INC., priority 2016, published 2019).

Assays:
in vitro = conditions: human, Caco-2, pH 7.4
Description: At this stage of growth, cell monolayers were fully polarized and differentiated.
The permeability assay buffer was Hanks Balanced Salt Solution containing 10 mM HEPES and 15 mM glucose at a pH of 7.4. The dosing buffer contained 5 μM metoprolol (positive control), 5 μM atenolol (negative control) and 100 μM lucifer yellow. The buffer in the receiver chamber also contained 1% bovine serum albumin (BSA). The dosing solution concentration was 5 μM in the assay buffer. Digoxin (20 μM) was used as Pgp substrate control.
The known Pgp inhibitor was co-dosed at 50 μM with compound at 5 μM.
Cell monolayers were dosed on the apical side (A-to-B) or basolateral side (B-to-A) and incubated at 37° C. in a shaker (65 rpm). Samples were taken from the donor and receiver chambers at 120 minutes. Each determination was performed in duplicate.
Narrow-window mass extraction LC/MS analysis was performed for all samples from this study using a Waters Xevo quadrupole time-of-flight (QTof) mass spectrometer, to determine relative peak areas of parent compound. The percent of transported drug was calculated based on these peak areas, relative to the initial, dosing concentration.

Plasma stability = assay type: in vitro ADME
Description: Thaw the frozen plasma immediately in a 37° C. water bath. Centrifuge plasma at 3,220 g for 10 minutes at room temperature to remove clots and collect supernatant into a fresh tube. Check and record the pH of the plasma. (Note: a. Only use plasma that has been thawed no more than twice since arrival. b. Only use plasma within the range of pH 7 to pH 8.)
The working solutions of test compounds and control compound are prepared in 50% water/50% acetonitrile and DMSO at the concentration of 100 μM, respectively. Propantheline is used as positive control for human and mouse plasma stability assay and mevinolin is used as the positive control for dog and rat plasma stability assay.
Add 5 μL of 100 μM working solution to 495 μL of pre-incubated human, monkey, dog, rat or mouse plasma to reach a final concentration of 1 μM. The final concentration of organic solvents is 0.5%. The assay is performed in duplicate. Incubate the reaction samples at 37° C. water bath with shaking at approximately 60 rpm. Take aliquots of 50 μL from the reaction samples at 0, 15, 30, 45, 60 and 120 minutes. Stop the reaction by adding 300 μL of room temperature quench solution (Acetonitrile containing internal standards (IS, 200 nM Labetalol, 100 nM Alprazolam and 2 μM Ketoprofen)). Vortex for 5 minutes. Centrifuge samples in plate at 3,220 g for 30 minutes at room temperature to precipitate protein. Transfer 100 μL of the supernatant to a new plate. The supernatant may be diluted with 100 μL or 200 μL water according to the LC/MS signal response and peak shape. Mix well and analyze samples using LC/MS/MS.

EPHA1 = biological target: T1, EPHA1 (Homo sapiens, UniProt P21709); assay: Binding to EPHA (kinase competition binding, qPCR); conditions: 300 nM, read-out: % Control @ 300 nM
T1 construct: T7 phage fusion (kinase-tagged phage) or DNA tag for qPCR; made in house; host or cells: E. coli BL21-derived host (T7 phage) or HEK-293
Description: (§1) The lysates were centrifuged and filtered to remove cell debris. […] All reactions were performed in polystyrene 96-well plates in a final volume of 0.135 ml.

EPHA2 = biological target: T2, EPHA2 (Homo sapiens, UniProt P29317); assay: Binding to EPHA (kinase competition binding, qPCR); conditions: 300 nM, read-out: % Control @ 300 nM
T2 construct: T7 phage fusion (kinase-tagged phage) or DNA tag for qPCR; made in house; host or cells: E. coli BL21-derived host (T7 phage) or HEK-293
Description: as §1

EPHA3 = biological target: T3, EPHA3 (Homo sapiens, UniProt P29320); assay: Binding to EPHA (kinase competition binding, qPCR); conditions: 300 nM, read-out: % Control @ 300 nM
T3 construct: T7 phage fusion (kinase-tagged phage) or DNA tag for qPCR; made in house; host or cells: E. coli BL21-derived host (T7 phage) or HEK-293
T3 sequence (P29320 21-983): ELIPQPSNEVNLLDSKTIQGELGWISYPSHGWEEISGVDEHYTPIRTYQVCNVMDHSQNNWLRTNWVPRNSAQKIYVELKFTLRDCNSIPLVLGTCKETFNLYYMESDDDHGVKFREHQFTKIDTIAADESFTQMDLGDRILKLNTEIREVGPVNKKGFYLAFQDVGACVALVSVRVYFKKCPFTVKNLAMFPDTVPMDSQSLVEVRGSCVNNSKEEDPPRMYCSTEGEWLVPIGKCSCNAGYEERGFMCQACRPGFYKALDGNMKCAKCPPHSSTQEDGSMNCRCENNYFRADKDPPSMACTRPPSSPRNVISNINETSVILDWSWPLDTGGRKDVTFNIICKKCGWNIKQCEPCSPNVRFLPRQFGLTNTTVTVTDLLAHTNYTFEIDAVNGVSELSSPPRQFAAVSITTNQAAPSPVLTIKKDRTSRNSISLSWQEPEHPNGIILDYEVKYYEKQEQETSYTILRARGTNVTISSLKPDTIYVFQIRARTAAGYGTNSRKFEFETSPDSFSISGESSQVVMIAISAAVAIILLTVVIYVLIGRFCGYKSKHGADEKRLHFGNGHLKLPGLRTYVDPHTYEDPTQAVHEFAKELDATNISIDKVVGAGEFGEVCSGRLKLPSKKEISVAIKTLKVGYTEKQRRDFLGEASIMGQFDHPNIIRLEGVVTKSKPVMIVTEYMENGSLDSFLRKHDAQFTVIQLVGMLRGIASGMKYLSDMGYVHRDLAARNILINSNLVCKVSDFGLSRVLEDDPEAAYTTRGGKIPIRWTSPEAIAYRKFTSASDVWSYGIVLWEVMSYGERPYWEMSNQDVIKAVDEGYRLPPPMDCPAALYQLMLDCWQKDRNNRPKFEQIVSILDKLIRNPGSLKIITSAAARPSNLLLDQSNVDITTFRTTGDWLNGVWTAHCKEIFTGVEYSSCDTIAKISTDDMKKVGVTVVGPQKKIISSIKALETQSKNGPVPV
Description: as §1

EPHA4 = biological target: T4, EPHA4 (Homo sapiens, UniProt P54764); assay: Binding to EPHA (kinase competition binding, qPCR); conditions: 300 nM, read-out: % Control @ 300 nM
T4 construct: T7 phage fusion (kinase-tagged phage) or DNA tag for qPCR; made in house; host or cells: E. coli BL21-derived host (T7 phage) or HEK-293
Description: as §1

EPHA5 = biological target: T5, EPHA5 (Homo sapiens, UniProt P54756); assay: Binding to EPHA (kinase competition binding, qPCR); conditions: 300 nM, read-out: % Control @ 300 nM
T5 construct: T7 phage fusion (kinase-tagged phage) or DNA tag for qPCR; made in house; host or cells: E. coli BL21-derived host (T7 phage) or HEK-293
T5 sequence (P54756 25-1037): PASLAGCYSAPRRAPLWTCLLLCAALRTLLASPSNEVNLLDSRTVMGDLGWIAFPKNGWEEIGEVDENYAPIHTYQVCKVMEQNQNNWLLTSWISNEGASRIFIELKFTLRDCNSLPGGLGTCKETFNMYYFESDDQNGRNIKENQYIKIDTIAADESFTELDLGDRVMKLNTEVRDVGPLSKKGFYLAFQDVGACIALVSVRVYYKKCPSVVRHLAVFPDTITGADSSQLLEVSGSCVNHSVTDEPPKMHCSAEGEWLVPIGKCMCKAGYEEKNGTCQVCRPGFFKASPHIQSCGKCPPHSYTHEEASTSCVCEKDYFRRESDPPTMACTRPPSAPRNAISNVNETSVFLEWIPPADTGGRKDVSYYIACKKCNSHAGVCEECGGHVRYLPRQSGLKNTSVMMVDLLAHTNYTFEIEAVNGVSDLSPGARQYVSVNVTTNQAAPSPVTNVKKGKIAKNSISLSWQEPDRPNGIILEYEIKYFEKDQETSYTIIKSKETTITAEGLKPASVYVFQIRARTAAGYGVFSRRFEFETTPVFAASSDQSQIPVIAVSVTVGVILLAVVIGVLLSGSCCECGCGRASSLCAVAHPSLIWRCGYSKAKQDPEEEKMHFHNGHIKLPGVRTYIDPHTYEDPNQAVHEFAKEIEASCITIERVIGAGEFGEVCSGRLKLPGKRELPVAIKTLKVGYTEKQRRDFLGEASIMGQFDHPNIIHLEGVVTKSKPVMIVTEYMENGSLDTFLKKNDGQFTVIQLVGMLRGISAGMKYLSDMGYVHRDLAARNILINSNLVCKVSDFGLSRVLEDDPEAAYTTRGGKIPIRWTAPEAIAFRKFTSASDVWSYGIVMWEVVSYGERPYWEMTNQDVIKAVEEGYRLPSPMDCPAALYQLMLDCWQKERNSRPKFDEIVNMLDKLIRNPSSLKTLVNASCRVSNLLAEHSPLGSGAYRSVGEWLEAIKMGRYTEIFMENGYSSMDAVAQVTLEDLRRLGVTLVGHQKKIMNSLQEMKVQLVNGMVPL
Description: as §1

EPHA7 = biological target: T6, EPHA7 (Homo sapiens, UniProt Q15375); assay: Binding to EPHA (kinase competition binding, qPCR); conditions: 300 nM, read-out: % Control @ 300 nM
T6 construct: T7 phage fusion (kinase-tagged phage) or DNA tag for qPCR; made in house; host or cells: E. coli BL21-derived host (T7 phage) or HEK-293
T6 sequence (Q15375 28-998): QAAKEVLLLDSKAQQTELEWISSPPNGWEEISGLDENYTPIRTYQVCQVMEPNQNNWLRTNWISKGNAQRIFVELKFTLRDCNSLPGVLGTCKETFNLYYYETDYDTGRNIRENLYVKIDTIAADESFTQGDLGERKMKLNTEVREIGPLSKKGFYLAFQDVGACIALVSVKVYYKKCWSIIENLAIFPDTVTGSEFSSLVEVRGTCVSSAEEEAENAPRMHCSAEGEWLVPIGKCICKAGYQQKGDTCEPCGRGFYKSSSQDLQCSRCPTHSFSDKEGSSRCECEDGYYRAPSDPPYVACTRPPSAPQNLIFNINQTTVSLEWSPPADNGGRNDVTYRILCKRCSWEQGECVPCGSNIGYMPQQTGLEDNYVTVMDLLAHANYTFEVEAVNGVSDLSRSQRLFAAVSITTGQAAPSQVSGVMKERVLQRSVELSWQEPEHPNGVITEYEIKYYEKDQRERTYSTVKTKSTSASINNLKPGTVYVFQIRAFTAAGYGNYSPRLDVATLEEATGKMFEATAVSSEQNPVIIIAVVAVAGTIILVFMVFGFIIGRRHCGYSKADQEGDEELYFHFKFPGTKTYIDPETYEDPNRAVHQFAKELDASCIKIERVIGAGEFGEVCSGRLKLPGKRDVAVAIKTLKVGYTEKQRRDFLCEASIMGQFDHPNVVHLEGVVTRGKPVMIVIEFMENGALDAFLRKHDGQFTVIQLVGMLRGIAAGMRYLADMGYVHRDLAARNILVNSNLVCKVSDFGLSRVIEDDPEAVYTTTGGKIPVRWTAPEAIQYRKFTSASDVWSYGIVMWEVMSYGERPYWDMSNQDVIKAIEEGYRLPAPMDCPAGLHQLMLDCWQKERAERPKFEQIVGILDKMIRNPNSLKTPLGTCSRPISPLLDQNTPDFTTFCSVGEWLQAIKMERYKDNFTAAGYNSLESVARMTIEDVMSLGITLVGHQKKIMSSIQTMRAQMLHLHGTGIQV
Description: as §1

EPHA8 = biological target: T7, EPHA8 (Homo sapiens, UniProt P29322); assay: Binding to EPHA (kinase competition binding, qPCR); conditions: 300 nM, read-out: % Control @ 300 nM
T7 construct: T7 phage fusion (kinase-tagged phage) or DNA tag for qPCR; made in house; host or cells: E. coli BL21-derived host (T7 phage) or HEK-293
Description: as §1

HOP-92 = assay: NCI screening panel (SRB); assay type: cell-based; conditions: Homo sapiens, HOP-92 (NSCLC), 48 h; for CC50: read-out: LC50 (the source's name)
SW-620 = assay: NCI screening panel (SRB); assay type: cell-based; conditions: Homo sapiens, SW-620 (Colon), 48 h; for CC50: read-out: LC50 (the source's name)
MDA-MB-435 = assay: NCI screening panel (SRB); assay type: cell-based; conditions: Homo sapiens, MDA-MB-435 (Melanoma), 48 h; for CC50: read-out: LC50 (the source's name)
IGROV1 = assay: NCI screening panel (SRB); assay type: cell-based; conditions: Homo sapiens, IGROV-1, IGROV1 (Ovarian), 48 h; for CC50: read-out: LC50 (the source's name)
OVCAR-8 = assay: NCI screening panel (SRB); assay type: cell-based; conditions: Homo sapiens, OVCAR-8 (Ovarian), 48 h; for CC50: read-out: LC50 (the source's name)
A498 = assay: NCI screening panel (SRB); assay type: cell-based; conditions: Homo sapiens, A498 (Renal), 48 h; for CC50: read-out: LC50 (the source's name)
BT-549 = assay: NCI screening panel (SRB); assay type: cell-based; conditions: Homo sapiens, BT-549 (Breast), 48 h; for CC50: read-out: LC50 (the source's name)
EGFR = EGFR (Homo sapiens, UniProt P00533); assay: Kinase assays, selectivity panel (qPCR); conditions: read-out: % Control @ 300 nM
Chain of EGFR (P00533 25-1210): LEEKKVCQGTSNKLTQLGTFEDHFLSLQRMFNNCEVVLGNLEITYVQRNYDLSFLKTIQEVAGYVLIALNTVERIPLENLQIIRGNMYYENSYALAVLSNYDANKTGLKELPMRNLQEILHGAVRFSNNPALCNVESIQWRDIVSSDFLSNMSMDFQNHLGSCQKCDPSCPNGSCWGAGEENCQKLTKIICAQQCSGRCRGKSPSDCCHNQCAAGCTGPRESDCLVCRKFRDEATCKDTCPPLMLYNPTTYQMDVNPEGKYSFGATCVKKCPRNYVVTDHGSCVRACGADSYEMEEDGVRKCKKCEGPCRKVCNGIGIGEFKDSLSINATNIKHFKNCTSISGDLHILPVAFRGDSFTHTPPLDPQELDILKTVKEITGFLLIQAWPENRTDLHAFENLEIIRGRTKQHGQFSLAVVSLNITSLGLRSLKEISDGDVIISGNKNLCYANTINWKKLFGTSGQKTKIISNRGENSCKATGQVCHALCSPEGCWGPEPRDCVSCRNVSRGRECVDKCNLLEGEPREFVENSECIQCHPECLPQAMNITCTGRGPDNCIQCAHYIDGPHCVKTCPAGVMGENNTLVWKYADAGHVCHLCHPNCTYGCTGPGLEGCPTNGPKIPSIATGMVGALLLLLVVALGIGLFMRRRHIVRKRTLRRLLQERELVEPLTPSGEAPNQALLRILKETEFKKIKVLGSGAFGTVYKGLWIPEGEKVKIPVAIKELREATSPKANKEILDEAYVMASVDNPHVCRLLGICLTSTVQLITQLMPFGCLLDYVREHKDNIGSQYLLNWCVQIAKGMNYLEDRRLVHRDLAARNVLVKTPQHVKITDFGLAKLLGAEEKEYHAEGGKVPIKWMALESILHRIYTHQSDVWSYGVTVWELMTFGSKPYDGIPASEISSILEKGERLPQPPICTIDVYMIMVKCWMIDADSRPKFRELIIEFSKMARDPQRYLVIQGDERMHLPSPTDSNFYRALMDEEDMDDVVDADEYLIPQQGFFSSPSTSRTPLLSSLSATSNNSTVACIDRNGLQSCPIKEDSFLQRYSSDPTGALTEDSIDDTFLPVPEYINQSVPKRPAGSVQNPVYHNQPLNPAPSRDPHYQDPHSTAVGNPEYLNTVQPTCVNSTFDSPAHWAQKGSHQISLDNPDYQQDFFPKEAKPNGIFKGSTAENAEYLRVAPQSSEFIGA

EGFR (S752-I759del) = EGFR (S752-I759del) (Homo sapiens, UniProt P00533, DEL752-759); assay: Kinase assays, selectivity panel (qPCR); conditions: read-out: % Control @ 300 nM
LCK (Lymphocyte TK) = LCK (Lymphocyte TK) (Homo sapiens, UniProt P06239); assay: Kinase assays, selectivity panel (qPCR); conditions: read-out: % Control @ 300 nM
Chain of LCK (Lymphocyte TK) (P06239 whole entry): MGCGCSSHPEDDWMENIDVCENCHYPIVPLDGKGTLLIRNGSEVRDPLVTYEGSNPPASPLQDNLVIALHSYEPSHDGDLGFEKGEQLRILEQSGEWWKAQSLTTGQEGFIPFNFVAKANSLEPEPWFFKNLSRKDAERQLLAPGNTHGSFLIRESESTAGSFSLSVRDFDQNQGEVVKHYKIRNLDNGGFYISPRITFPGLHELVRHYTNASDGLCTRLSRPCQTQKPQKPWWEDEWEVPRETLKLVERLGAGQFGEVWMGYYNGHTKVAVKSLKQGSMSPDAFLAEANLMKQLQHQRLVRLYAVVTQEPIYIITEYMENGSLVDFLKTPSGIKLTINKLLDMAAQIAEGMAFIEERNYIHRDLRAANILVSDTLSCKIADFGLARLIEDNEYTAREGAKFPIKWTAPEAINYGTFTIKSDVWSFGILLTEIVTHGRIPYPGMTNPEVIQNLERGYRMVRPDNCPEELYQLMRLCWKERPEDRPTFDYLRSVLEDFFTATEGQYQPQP

| SMILES | Papp A→B at 120 min, 5 µM (in vitro) | Papp B→A at 120 min, 5 µM (in vitro) | Dog Remaining Percentage (%) (Plasma stability; 60 min) | Human Remaining Percentage (%) (Plasma stability; 60 min) | Monkey Remaining Percentage (%) (Plasma stability; 60 min) | Mouse Remaining Percentage (%) (Plasma stability; 60 min) | Rat Remaining Percentage (%) (Plasma stability; 60 min) | Dog Remaining Percentage (%) (Plasma stability; 120 min) | Human Remaining Percentage (%) (Plasma stability; 120 min) | Monkey Remaining Percentage (%) (Plasma stability; 120 min) | Mouse Remaining Percentage (%) (Plasma stability; 120 min) | Rat Remaining Percentage (%) (Plasma stability; 120 min) | remaining binding at 0.3 µM (EPHA1) | remaining binding at 0.3 µM (EPHA2) | remaining binding at 0.3 µM (EPHA3) | remaining binding at 0.3 µM (EPHA4) | remaining binding at 0.3 µM (EPHA5) | remaining binding at 0.3 µM (EPHA7) | remaining binding at 0.3 µM (EPHA8) | GI50 (HOP-92) | other results |
| --- | --- | --- | --- | --- | --- | --- | --- | --- | --- | --- | --- | --- | --- | --- | --- | --- | --- | --- | --- | --- | --- |
| CN(C)C/C=C/C(=O)Nc1cc2c(Nc3ccc(F)c(Cl)c3)ncnc2cc1O[C@H]1CCOC1 [Afatinib, reference compound] | 0.81 ×10⁻⁶ cm/s | 16 ×10⁻⁶ cm/s | 111.61% | 94.78% | 102.98% | 101.81% | 101.43% | 102.15% | 98.62% | 97.24% | 106.59% | 95.31% |  |  |  |  |  |  |  |  |  |
| CN(C)C/C=C/C(=O)Nc1cc2c(Nc3cccc(Cl)c3F)ncnc2cc1OCCOC(F)F.O=C(O)/C=C\C(=O)O [Example I-5-MA, (E)-N-[4-(3-chloro-2-fluoro-anilino)-7-[2-(difluoromethoxy)ethoxy]quinazolin-6-yl]-4-(dimethylamino)but-2-enamide dimaleic acid salt] | 13.5 ×10⁻⁶ cm/s | 6.52 ×10⁻⁶ cm/s | 104.57% | 101.95% | 85.79% | 95.45% | 99.28% | 102.13% | 95.45% | 83.32% | 105.25% | 95.14% |  |  |  |  |  |  |  |  |  |
| CN(C)C/C=C/C(=O)Nc1cc2c(Nc3ccc(F)c(Cl)c3F)ncnc2cc1OCCOC(F)F.O=C(O)/C=C\C(=O)O.O=C(O)/C=C\C(=O)O [Example I-9-MA, (E)-N-[4-(3-chloro-2,4-difluoro-anilino)-7-[2-(difluoromethoxy)ethoxy]quinazolin-6-yl]-4-(dimethylamino)but-2-enamide di-maleic acid salt] |  |  |  |  |  |  |  |  |  |  |  |  | 34% | 92% | 46% | 51% | 51% | 56% | 40% | 185 nM | CC50 (HOP-92): 31200 nM; GI50 (SW-620): 1520 nM; CC50 (SW-620): 52700 nM; GI50 (MDA-MB-435): 1170 nM; CC50 (MDA-MB-435): 27200 nM; GI50 (IGROV1): < 10 nM; CC50 (IGROV1): 32500 nM; GI50 (OVCAR-8): 1090 nM; CC50 (OVCAR-8): 32700 nM; GI50 (A498): 319 nM; CC50 (A498): 6000 nM; GI50 (BT-549): 1690 nM; CC50 (BT-549): 32200 nM; remaining activity at 0.3 µM (EGFR): 0.7%; remaining activity at 0.3 µM (EGFR (S752-I759del)): 0.5%; remaining activity at 0.3 µM (LCK (Lymphocyte TK)): 1.3% |
| O=C(/C=C/CN1CCCCC1)Nc1cc2c(Nc3ccc(F)c(Cl)c3F)ncnc2cc1OCCOC(F)F.O=C(O)/C=C\C(=O)O.O=C(O)/C=C\C(=O)O [Example I-10-MA, (E)-N-[4-(3-chloro-2,4-difluoro-anilino)-7-[2-(difluoromethoxy)ethoxy]quinazolin-6-yl]-4-(1-piperidyl)but-2-enamide di-maleic acid salt] |  |  |  |  |  |  |  |  |  |  |  |  | 24% | 80% | 45% | 50% | 49% | 40% | 33% | 151 nM | CC50 (HOP-92): 21100 nM; GI50 (SW-620): 1810 nM; CC50 (SW-620): 34700 nM; GI50 (MDA-MB-435): 1800 nM; CC50 (MDA-MB-435): 28600 nM; GI50 (IGROV1): 33.1 nM; CC50 (IGROV1): > 100000 nM; GI50 (OVCAR-8): 1350 nM; CC50 (OVCAR-8): > 100000 nM; GI50 (A498): 313 nM; CC50 (A498): 5920 nM; GI50 (BT-549): 2470 nM; CC50 (BT-549): 36200 nM; remaining activity at 0.3 µM (EGFR): 2.7%; remaining activity at 0.3 µM (EGFR (S752-I759del)): 0%; remaining activity at 0.3 µM (LCK (Lymphocyte TK)): 1.3% |
